How the values were obtained:
Type in all cases: cell-based, human
[1] = tested on: CD45RA^+CD25^+CD4^+ T cells; experiment: Expansion culture of CD45RA^+CD25^+CD4^+ T cells with allogenic PBMCs and IL-2, everolimus added; conditions: everolimus 1000 nM from the start of cultivation
Method: (§1) CD45RA^+CD25^+CD4^+ T cells or CD45RA^+CD25^−CD4^+ T cells in human peripheral blood (5×10̂4 cells/well) were stimulated with 1×10̂5 cells/well radiated (40 Gy) allogenic PBMCs in a 96-well round-bottomed culture plate containing 200 μl per well of a proliferation medium (AlyS505N (produced by Cell Science & Technology Institute) supplemented with 2% human AB serum) in the presence of human IL-2 (1000 U/ml, produced by Cell Science & Technology Institute).
(§2) Everolimus (100 nM or 1000 nM, produced by Novartis Pharma) was added to the medium from the start of cultivation. The everolimus was purified as follows: Certican 0.25 mg tablet (produced by Novartis Pharma) was milled and dissolved in acetone. Then, the solution was filtered, the filtrate was evaporated while rotating, and the precipitate was vacuum-dried. The extract obtained was dissolved in DMF and separated by HPLC (column C18 4 μm, 150×2.1 mm). After separation, the everolimus was freeze-dried and purified.
(§3) Every 3 to 4 days, half of the medium was replaced with a fresh proliferation medium containing IL-2. If necessary, the cells were separated and repeatedly re-stimulated with radiated (40 Gy) allogenic PBMC every 10 to 14 days. Fifty days after the start of cultivation, the cells were collected and used for functional assay.

[2] = tested on: CD45RA^+CD25^−CD4^+ T cells; experiment: Expansion culture of CD45RA^+CD25^−CD4^+ T cells with allogenic PBMCs and IL-2, everolimus added; conditions: everolimus 100 nM or 1000 nM from the start of cultivation
Method: as §1, §2, §3

[3] = tested on: CD45RA^+CD25^+CD4^+ T cell line; experiment: Suppression assay ([^3H] thymidine uptake) of the everolimus-cultured CD45RA^+CD25^+CD4^+ T cell line; conditions: cultivation in the presence of everolimus, 50 days; compared with controls
Method: as §1
as §2, with “The extract obtained was dissolved in DMF and separated by HPLC (column C18 4 μm, 150×2.1 mm). After separation, the everolimus was freeze-dried and purified.” left out
(§4) The indicated number of cells of the expanded CD45RA^+CD25^+CD4^+ T cell line or expanded CD45RA^+CD25^−CD4^+ T cell line, alone or along with autologous responder CD4^+ T cells (5×10̂4 cells/well), were stimulated with radiated (40 Gy) PBMCs (1×10̂5 cells/well) obtained from the same individual as the allogenic PBMCs used for the cultivation, in a proliferation medium in a round-bottomed 96-well microplate. […] Subsequently, the cells were recovered, and [^3H] thymidine uptake was measured using 1450 Microbeta TriLux (Wallac).

[4] = tested on: CD45RA^+CD25^−CD4^+ T cell line; experiment: Suppression assay ([^3H] thymidine uptake) of the everolimus-cultured CD45RA^+CD25^−CD4^+ T cell line; conditions: cultivation in the presence of everolimus, 50 days; compared with the control
Method: as §1
as §2, with “The extract obtained was dissolved in DMF and separated by HPLC (column C18 4 μm, 150×2.1 mm). After separation, the everolimus was freeze-dried and purified.” left out
as §4

For `CO[C@H]1C[C@@H]2CC[C@@H](C)[C@@](O)(O2)C(=O)C(=O)N2CCCC[C@H]2C(=O)O[C@H]([C@H](C)C[C@@H]2CC[C@@H](OCCO)[C@H](OC)C2)CC(=O)[C@H](C)/C=C(\C)[C@@H](O)[C@@H](OC)C(=O)[C@H](C)C[C@H](C)/C=C/C=C/C=C/1C` [everolimus, 42-O-(2-hydroxy)ethyl-rapamycin], the “proliferation of CD45RA^+CD25^+CD4^+ T cells” value [1] was “suppressed”, the “proliferation of CD45RA^+CD25^−CD4^+ T cells” value [2] was “enhanced” and the “T cell line's effect on proliferation of CD4^+ T cells in response to alloantigen-presenting cells” value [3] was “more strongly suppressed”. For the same compound, the “T cell line's effect on proliferation of CD4^+ T cells in response to alloantigen-presenting cells” value [4] was “more strongly suppressed”.
